{"source": "patent US20150141460A1", "about": "“Anti-inflammatory Compositions” (Cambridge Enterprise Limited, priority 2007, published 2015)", "key": {"[1]": {"test_system": "SDF-1α induced migration of THP-1 cells", "experiment": "ChemoTx transwell migration assay, SDF-1α induced migration of THP-1 cells", "assay_type": "cell-based", "conditions": "Homo sapiens; THP-1 cell line; maximal dose of chemoattractant; read-out: ED50 SDF-1α induced migration", "procedure": "In principle, this assay consists of two chambers separated by a porous membrane. The chemoattractant is placed in the lower compartment and the cells are placed in the upper compartment. After incubation for a period at 37° C. the cells move towards the chemoattractant, and the number of cells in the lower compartment is proportional to the chemoattractant activity (relative to a series of controls).\nNext, the chemoattractant solution to be placed in the lower compartment is prepared. For example, MCP-1 is diluted in GBSS+BSA to give a final concentration of 25 ng/ml. This is divided into two pots, as for the cell suspension. To one pot, the test compound is added to the same final concentration as was added to the cell suspension, while to the other pot an equal volume of GBSS+BSA plus vehicle as appropriate (e.g., not more than 1% DMSO) is added. Alternatively, other chemokines may be used (SDF-1α at 7.5 ng/ml; RANTES at 50 ng/ml; IL-8 at 10 ng/ml using neutrophils as the target cell population). […]\nThe impact of the test substance is calculated by comparing the chemoattractant-induced migration which occurred in the presence or absence of various concentrations of the test substance. Typically, the inhibition of migration is expressed as a percentage of the total chemoattractant-induced migration which was blocked by the presence of the compound. […]"}, "[2]": {"test_system": "CD4+ splenocytes (IFN-γ / IL-4)", "experiment": "Ovalbumin-induced model of asthma, T-helper cell polarisation (Th1/Th2 ratio) of CD4+ splenocytes by flow cytometry", "assay_type": "in vivo, Brown Norway rats", "conditions": "0.3 mg/kg daily via the oral route", "description": "Bars represent mean Th1/Th2 ratios, shown on the Y-axis, for groups of 10 animals, whiskers represent SEM; * p<0.05 versus unchallenged rats; † p<0.05 versus sensitised and challenged rats, in both cases using Student's unpaired t-test assuming equal variance, with two tails). All rats (except the ‘BN rats’ group, which was not exposed to ovalbumin) received the same sensitisation and challenge regimen, but were either treated with vehicle only (‘Sensitised+vehicle’), or with compound (I′) at 0.3 mg/kg bodyweight or with monteleukast (‘Singulair™’) at 30 mg/kg bodyweight, all administered daily by oral gavage.\nAdult Brown Norway rats (200-300 g body weight; n=10 per group) were sensitised by a single intraperitoneal injection of 0.1 mg Ovalbumin on day 0. Each rat then received an intratracheal challenge with a solution of 1% ovalbumin (w/v) on day 8, and with 2% ovalbumin (w/v) on days 15, 18 and 21. The animals were then sacrificed 3 hours after the final challenge on day 21. […]\nThe spleen was also removed from each […] and placed in RPMI+10% FCS+antibiotics. […] The resulting cell suspension was then centrifuged (328 g; 5 mins) and washed in RPMI+10% FCS+antibiotics, before being resuspended in fresh media and counted using a haemocytometer. […]"}}, "data": [{"smiles": "CC(C)(C)C(=O)N[C@H]1CCCNC1=O", "note": "[Compound (I′), (S)-3-(2′,2′-dimethylpropanoylamino)-tetrahydropyridin-2-one]", "values": [{"measurement": "EC50", "setting": "[1]", "result": 0.05, "unit": "nM"}, {"measurement": "effect on Th2 polarisation (Th1/Th2 ratio)", "setting": "[2]", "result": "significantly reversed the Th2 polarisation"}]}]}
